“Also recorded” adds a separate entry of the source. Blank lines part the entries; values can stand above or below the compound they belong to.
Columns and labels:
c2c12 myotubes [1] = experiment: Fatty acid oxidation (FAO) in c2c12 myotubes, Example 1; type: cell-based; settings: preserved in presence and absence of 20 nM rapamycin
Procedure: We have shown that catabolic systems are also stimulated to fuel this process, resulting in increased mitochondrial biogenesis and fatty acid oxidation (FAO). To address the mechanism of this effect, we first determined its mTOR-dependence by assessing leucine stimulation of FAO in the presence and absence of 20 nM rapamycin; although rapamycin inhibited FAO in c2c12 myotubes, the degree of leucine stimulation was preserved (˜50%, p<0.03; FIG. 1).
(§1) We next investigated the role of intact leucine (0-0.5 mM) vs. its metabolites, α-ketoisocaproic acid (KIC) (0-0.5 mM) and HMB (0-50 μM). […] Both leucine and HMB increased myotube mitochondrial biogenesis (assessed fluorometrically via NAO binding) by ˜50%, (p<0.005, FIG. 3).

[2] = test system: myotube mitochondrial biogenesis; experiment: Myotube mitochondrial biogenesis (NAO binding), Example 1; type: cell-based; settings: assessed fluorometrically via NAO binding
Procedure: as §1

[3] = test system: PGC-1α, NRF-1 and UCP3 genes; experiment: Expression of mitochondrial regulatory and component genes; type: cell-based
SIRT1 = target: T1, SIRT1 (Homo sapiens, UniProt Q96EB6); experiment: SIRT1 activity, cell-free fluorimetric deacetylation assay; type: biochemical; settings: cell-free system
T1 construct: purchased ENZO Life Sciences International, Inc. BML-AK555
T1 sequence (Q96EB6 1-747): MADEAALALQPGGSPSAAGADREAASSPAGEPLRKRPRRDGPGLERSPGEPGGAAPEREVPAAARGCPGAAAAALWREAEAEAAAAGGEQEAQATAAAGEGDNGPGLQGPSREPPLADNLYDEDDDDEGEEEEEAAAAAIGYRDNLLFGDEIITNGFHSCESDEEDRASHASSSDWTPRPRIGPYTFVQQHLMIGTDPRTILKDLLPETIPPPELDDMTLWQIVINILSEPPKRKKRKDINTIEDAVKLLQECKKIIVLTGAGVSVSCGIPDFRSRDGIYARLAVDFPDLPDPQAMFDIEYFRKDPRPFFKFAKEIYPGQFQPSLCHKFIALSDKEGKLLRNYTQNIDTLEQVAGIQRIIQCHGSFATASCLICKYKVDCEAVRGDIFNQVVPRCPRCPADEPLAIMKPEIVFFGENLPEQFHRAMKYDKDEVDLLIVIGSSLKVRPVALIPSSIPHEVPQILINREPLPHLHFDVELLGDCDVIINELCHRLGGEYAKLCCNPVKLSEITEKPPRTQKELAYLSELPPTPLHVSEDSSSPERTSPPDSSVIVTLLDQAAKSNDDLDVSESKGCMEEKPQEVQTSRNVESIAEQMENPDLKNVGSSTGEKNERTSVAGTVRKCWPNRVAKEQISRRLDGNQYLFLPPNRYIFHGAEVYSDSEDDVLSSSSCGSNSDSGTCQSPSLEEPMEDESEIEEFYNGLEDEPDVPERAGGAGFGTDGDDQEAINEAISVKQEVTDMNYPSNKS
Procedure: SIRT1 activity was measured by using the SIRT1 Fluorimetric Drug Discovery Kit (BML-AK555, ENZO Life Sciences International, Inc. PA, USA). In this assay, SIRT1 activity is assessed by the degree of deacetylation of a standardized substrate containing an acetylated lysine side chain. The substrate utilized is a peptide containing amino acids 379-382 of human p53 (Arg-His-Lys-Lys[Ac]), an established target of SIRT1 activity; SIRT1 activity is directly proportional to the degree of deacetylation of Lys-382. Samples were incubated with peptide substrate (25 μM), and NAD^+ (500 μM) in a phosphate-buffered saline solution at 37° C. on a horizontal shaker for 45 minutes. The reaction was stopped with the addition of 2 mM nicotinamide and a developing solution that binds to the deacetylated lysine to form a fluorophore. Following 10 minutes incubation at 37° C., fluorescence was read in a plate-reading fluorometer at an excitation wavelength of 360 nm and an emission wavelength of 450 nm. […] A standard curve was constructed using deacetylated substrate (0-10 μM).

Sirt3 = target: T2, Sirt3 (Mus musculus, UniProt Q8R104); experiment: Sirt3 activity in mitochondrial protein of treated 3T3-L1 adipocytes; type: cell-based; settings: 4 hours, leucine 0.5 mM, HMB 5 uM, resveratrol 200 nM
T2 construct: endogenous in cells; host or cells: 3T3-L1 adipocytes (mitochondrial protein)
T2 sequence (Q8R104 1-334): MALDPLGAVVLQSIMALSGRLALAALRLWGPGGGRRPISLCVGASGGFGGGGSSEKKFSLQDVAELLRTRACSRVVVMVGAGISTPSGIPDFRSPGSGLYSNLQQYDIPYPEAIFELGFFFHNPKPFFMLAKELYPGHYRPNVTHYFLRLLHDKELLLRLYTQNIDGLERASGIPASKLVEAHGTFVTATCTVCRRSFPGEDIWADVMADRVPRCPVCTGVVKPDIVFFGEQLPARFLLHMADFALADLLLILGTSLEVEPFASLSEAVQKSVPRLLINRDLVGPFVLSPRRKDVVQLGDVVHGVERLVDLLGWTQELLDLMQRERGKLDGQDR

Adipocytes (3T3-L1) = experiment: Fatty acid oxidation (3H-palmitate) in 3T3-L1 adipocytes; type: cell-based; settings: high (25 mM) glucose, 4 hours; leucine 0.5 mM, HMB 5 uM, resveratrol 200 nM; vs. control
Procedure: High glucose medium reduced fatty acid oxidation by 46% (p<0.05).
Fatty acid oxidation was measured using ^3H-labeled palmitate oxidation, with the ^3H label trapped as water as a result of the fat oxidation. The ^3H was then measured via scintillation counter.

[4] = test system: adipocytes (3T3-L1) and myotubes (C2C12); experiment: Fatty acid oxidation screening and dose-response, cell type both or not stated; type: cell-based; settings: for synergy with HMB or leucine in stimulating fatty acid oxidation: compound at its no-effect concentration with HMB 5 μM or leucine 0.5 mM; for concentrations that exert no effect (dose-response curves; sub-therapeutic dose): highest dose that exerted no effect on fatty acid oxidation; for independent activity in stimulating fatty acid oxidation (dose-response): compound alone
[5] = in vivo; cited from earlier work
c2c12 myotubes [6] = experiment: Glucose utilization (extracellular acidification) in C2C12 myotubes; type: cell-based; settings: HMB 5 μM, leucine 0.5 mM, resveratrol 200 nM, other components at their no-effect concentration
Procedure: All compounds were tested for potential to independently or synergistically modulate sirtuin signaling either by direct stimulation or indirect via upstream signaling via AMPK. A key outcome of Sirt1 signaling is stimulation of PGC1-α and subsequent stimulation of mitochondrial biogenesis and fatty acid oxidation. Accordingly, fatty acid oxidation, measured as palmitate-induced oxygen consumption as described below, was utilized as a sensitive first level of screening for aerobic mitochondrial metabolism. A dose-response curve for fatty acid oxidation was established for each compound studied, and a “sub-therapeutic dose” was defined as the highest dose that exerted no effect in this system. […] Following assessment of fatty acid oxidation, Sirt1 activity, AMPK activity, mitochondrial biogenesis and glucose utilization (measured as glucose-induced extracellular acidification in the absence of fatty acids in the media) were assessed for lead combinations and appropriate controls. Glucose Utilization: In the absence of a fatty acid source and oxidative metabolism, glycolysis and subsequent lactate production results in extracellular acidification, which was also measured using a Seahorse Bioscience XF24 analyzer. […] Data for each sample were normalized to the pre-glucose injection baseline for that sample and expressed as % change from that baseline. […]

[7] = Plasma insulin, glucose and HOMAIR in db/db mice; type: in vivo
[8] = Insulin tolerance test in db/db mice; type: in vivo
[9] = db/db mice
[10] = high dose metformin 300 mg/kg bw

SIRT1 activity (SIRT1): significantly increased SIRT1 activity
Compound: CC(C)C[C@H](N)C(=O)O [leucine]
leucine stimulation of FAO (c2c12 myotubes [1]): ~50% | increase in myotube mitochondrial biogenesis [2]: ~50% | expression of mitochondrial regulatory (PGC-1α and NRF-1) and component (UCP3) genes [3]: stimulated expression | increase in Sirt3 activity (Sirt3): no significant independent effect; also recorded: no independent effects | increase in fatty acid oxidation, high glucose (Adipocytes (3T3-L1)): 27%

Compound: O[C@H]1[C@H](O)[C@@H](O)[C@H](O)[C@@H](O)[C@H]1O [Myo-inositol, reference compound]
synergy with HMB or leucine in stimulating fatty acid oxidation [4]: no synergy

Compound: O=C(O)/C=C/c1ccc(O)c(O)c1 [Caffeic acid]
concentrations that exert no effect (dose-response curves; sub-therapeutic dose) [4]: ≤ 1000 nM

Compound: Cn1c(=O)c2c(ncn2C)n(C)c1=O [Caffeine]
plasma concentration observed following caffeine consumption [5]: 1000 to 10000 nM

Compound: O=C(O[C@@H]1Cc2c(O)cc(O)cc2O[C@@H]1c1cc(O)c(O)c(O)c1)c1cc(O)c(O)c(O)c1 [EGCG, epigallocatechin gallate]
independent activity in stimulating fatty acid oxidation (dose-response) [4]: minimally active | synergy with HMB or leucine in stimulating fatty acid oxidation [4]: do not detect synergistic effects | increase in glucose utilization in myotubes (extracellular acidification response to glucose) (c2c12 myotubes [6]): no independent effect

Compound: OC[C@@H](O)[C@@H](O)[C@H](O)[C@@H](O)CO [Sorbitol, reference compound]
synergy with HMB or leucine in stimulating fatty acid oxidation [4]: no synergy

Compound: CN(C)C(=N)N=C(N)N [Metformin]
reduction of plasma insulin ([7]; 2 weeks, high dose metformin 300 mg/kg bw (1.5 g/kg diet)): 27% | plasma insulin ([7]; 2 weeks, high dose metformin 300 mg/kg bw, control 62): 45 uU/mL | effect on plasma glucose [7, 10]: no significant effect | independent effects on any variable studied ([7]; low dose of metformin (150 mg/kg) and very low dose (50 mg/kg)): no significant independent effects | decrease in blood glucose over the 30 minute linear portion of the insulin response curve ([8]; insulin 0.75 U/kg, standard metformin dose, or low / very low metformin blends): ~60 mg/dL | changes in blood glucose in response to the insulin challenge ([8]; low-dose or very low-dose of metformin alone): minimal changes | effects on body composition [9, 10]: no significant effects | effect on visceral fat mass ([9]; metformin at any dosage in the absence of HMB): not affected

Compound: Fucoxanthin
concentrations that exert no effect (dose-response curves; sub-therapeutic dose) [4]: ≤ 100 nM

Compound: Cn1c(=O)c2[nH]cnc2n(C)c1=O [Theophylline, reference compound]
concentrations that exert no effect (dose-response curves; sub-therapeutic dose) [4]: below 1 μM

SIRT1 activity (SIRT1): significantly increased SIRT1 activity
Compound: CC(C)CC(=O)C(=O)O [KIC, α-ketoisocaproic acid]

Compound: O=c1oc2c(O)c(O)cc3c(=O)oc4c(O)c(O)cc1c4c23 [Ellagic acid]
independent activity in stimulating fatty acid oxidation (dose-response) [4]: little activity, even at high concentrations (50 μM)

Compound: OC[C@@H](O)[C@@H](O[C@H]1O[C@H](CO)[C@@H](O)[C@H](O)[C@H]1O)[C@H](O)[C@@H](O)CO [Maltitol, reference compound]
synergy with HMB or leucine in stimulating fatty acid oxidation [4]: no synergy was noted | concentrations that exert no effect (dose-response curves; sub-therapeutic dose) [4]: ≤ 100 nM

SIRT1 activity (SIRT1): no significant effect
Compound: CC(C)[C@H](N)C(=O)O [valine, reference compound]

— US8623924B2, “Compositions and methods for modulating metabolic pathways” (Nusirt Sciences, Inc., priority 2011, dated 2014)
